“And” between values parts separate entries of the source, which are not always exact repeats. Equal values may be shown once.
What was measured:
SfurOBP1 = SfurOBP1 (Sogatella furcifera, UniProt V5T8N5); test: biochemical; assay type: binding; conditions: for Fluorescence competitive binding assay, fluorescence intensity: OBP1, three replicate columns
Outline: (§1)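 1-NPN displacement assay with odorant competitor at 2–20 µM; protein and probe both 2.0 µM at pH 7.4. Ki is calculated from IC50 using the protein/1-NPN dissociation constant.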

SfurOBP11 = SfurOBP11 (Sogatella furcifera, UniProt V5T6E3); test: biochemical; assay type: binding
Outline: as §1

SfurOBP2 = SfurOBP2 (Sogatella furcifera, UniProt V5T759); test: biochemical; assay type: binding
Outline: as §1

SfurOBP3 = SfurOBP3 (Sogatella furcifera, UniProt V5T818); test: biochemical; assay type: binding; conditions: for Fluorescence competitive binding assay, fluorescence intensity: OBP3, three replicate columns
Outline: as §1

S. furcifera adults = test: Y-tube olfactometer behavioral trials; assay type: in vivo, Sogatella furcifera; conditions: odorant 50 µL/L vs hexane
Outline: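 Single S. furcifera adults (2 days post-emergence, starved 0.5 h) chose between odorant (100 µL of 50 µL/L on filter paper) and hexane control in a glass Y-tube, charcoal-filtered humidified air 300 mL/min per arm, 25 ± 1 °C, 50% RH. Choice scored if insect passed half an arm and stayed >1 min within 10 min; 45 insects per compound, chi-squared test.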

Chain of SfurOBP1 (V5T8N5 entry or part of it): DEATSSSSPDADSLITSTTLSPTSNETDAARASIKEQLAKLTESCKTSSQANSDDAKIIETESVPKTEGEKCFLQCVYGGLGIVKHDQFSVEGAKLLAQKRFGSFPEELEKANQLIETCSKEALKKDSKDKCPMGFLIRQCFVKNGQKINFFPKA
Chain of SfurOBP2 (V5T759 entry or part of it): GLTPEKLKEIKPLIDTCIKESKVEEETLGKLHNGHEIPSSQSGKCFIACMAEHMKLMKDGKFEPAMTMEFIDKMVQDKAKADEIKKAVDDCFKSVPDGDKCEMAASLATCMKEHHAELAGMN
Chain of SfurOBP3 (V5T818 entry or part of it): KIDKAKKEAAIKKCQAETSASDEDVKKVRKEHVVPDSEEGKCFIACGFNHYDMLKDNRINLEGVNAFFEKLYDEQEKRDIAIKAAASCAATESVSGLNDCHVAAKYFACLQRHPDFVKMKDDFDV
Chain of SfurOBP11 (V5T6E3 entry or part of it): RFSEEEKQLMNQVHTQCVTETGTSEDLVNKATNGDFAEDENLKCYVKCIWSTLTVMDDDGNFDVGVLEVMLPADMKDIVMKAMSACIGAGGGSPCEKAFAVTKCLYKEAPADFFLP

SMILES: C=C/C(C)=C/C/C=C(\C)CCC=C(C)C [α-farnesene]
- Fluorescence competitive binding assay, fluorescence intensity (SfurOBP1; ligand concentration 2 (μM)): 5991 and 6647 and 6019
- Fluorescence competitive binding assay, fluorescence intensity (SfurOBP1; ligand concentration 4 (μM)): 9444 and 9717 and 9590
- Fluorescence competitive binding assay, fluorescence intensity (SfurOBP1; ligand concentration 6 (μM)): 8928 and 9981 and 10192
- Fluorescence competitive binding assay, fluorescence intensity (SfurOBP1; ligand concentration 8 (μM)): 7764 and 12061 and 8808
- Fluorescence competitive binding assay, fluorescence intensity (SfurOBP1; ligand concentration 10 (μM)): 10672 and 12757 and 12848
- Fluorescence competitive binding assay, fluorescence intensity (SfurOBP1; ligand concentration 12 (μM)): 11226 and 16440 and 11668
- Fluorescence competitive binding assay, fluorescence intensity (SfurOBP1; ligand concentration 14 (μM)): 11457 and 12509 and 12654
- Fluorescence competitive binding assay, fluorescence intensity (SfurOBP1; ligand concentration 16 (μM)): 9720 and 12853 and 11395
- Fluorescence competitive binding assay, fluorescence intensity (SfurOBP1; ligand concentration 18 (μM)): 14020 and 17603 and 13863
- Fluorescence competitive binding assay, fluorescence intensity (SfurOBP1; ligand concentration 20 (μM)): 16799 and 14644 and 13556
- IC50 (SfurOBP1; SfurOBP1, protein and 1-NPN both 2.0 µM, competitor 2-20 µM, read-out: IC50): > 20 µM
- IC50 (SfurOBP11; SfurOBP11, protein and 1-NPN both 2.0 µM, competitor 2-20 µM, read-out: IC50): > 20 µM
- Fluorescence intensity, fluorescence competitive binding assay, OBP11 (SfurOBP11; ligand concentration 4, replicate 1): 32002
- Fluorescence intensity, fluorescence competitive binding assay, OBP11 (SfurOBP11; ligand concentration 6, replicate 1): 31916
- Fluorescence intensity, fluorescence competitive binding assay, OBP11 (SfurOBP11; ligand concentration 8, replicate 1): 31638
- Fluorescence intensity, fluorescence competitive binding assay, OBP11 (SfurOBP11; ligand concentration 8, replicate 2): 32522
- Fluorescence intensity, fluorescence competitive binding assay, OBP11 (SfurOBP11; ligand concentration 8, replicate 3): 31984
- Fluorescence intensity, fluorescence competitive binding assay, OBP11 (SfurOBP11; ligand concentration 10, replicate 1): 34517
- Fluorescence intensity, fluorescence competitive binding assay, OBP11 (SfurOBP11; ligand concentration 10, replicate 2): 33120
- Fluorescence intensity, fluorescence competitive binding assay, OBP11 (SfurOBP11; ligand concentration 10, replicate 3): 33819
- Fluorescence intensity, fluorescence competitive binding assay, OBP11 (SfurOBP11; ligand concentration 12, replicate 3): 31678
- Fluorescence intensity, fluorescence competitive binding assay, OBP11 (SfurOBP11; ligand concentration 14, replicate 1): 31889
- Fluorescence intensity, fluorescence competitive binding assay, OBP11 (SfurOBP11; ligand concentration 14, replicate 2): 31807
- Fluorescence intensity, fluorescence competitive binding assay, OBP11 (SfurOBP11; ligand concentration 14, replicate 3): 32302
- Fluorescence intensity, fluorescence competitive binding assay, OBP11 (SfurOBP11; ligand concentration 18, replicate 1): 36648
- Fluorescence intensity, fluorescence competitive binding assay, OBP11 (SfurOBP11; ligand concentration 18, replicate 2): 40474
- Fluorescence intensity, fluorescence competitive binding assay, OBP11 (SfurOBP11; ligand concentration 18, replicate 3): 36079
- Fluorescence intensity, fluorescence competitive binding assay, OBP11 (SfurOBP11; ligand concentration 20, replicate 1): 36041
- Fluorescence intensity, fluorescence competitive binding assay, OBP11 (SfurOBP11; ligand concentration 20, replicate 2): 35048
- Fluorescence intensity, fluorescence competitive binding assay, OBP11 (SfurOBP11; ligand concentration 20, replicate 3): 35313
- IC50 (SfurOBP2; SfurOBP2, protein and 1-NPN both 2.0 µM, competitor 2-20 µM, read-out: IC50): > 20 µM
- Fluorescence competitive binding assay, OBP2 (raw fluorescence reading) (SfurOBP2; ligand concentration 2 (unit not given), replicate column 1 of 3): 15175
- Fluorescence competitive binding assay, OBP2 (raw fluorescence reading) (SfurOBP2; ligand concentration 2 (unit not given), replicate column 2 of 3): 15154
- Fluorescence competitive binding assay, OBP2 (raw fluorescence reading) (SfurOBP2; ligand concentration 2 (unit not given), replicate column 3 of 3): 16258
- Fluorescence competitive binding assay, OBP2 (raw fluorescence reading) (SfurOBP2; ligand concentration 4 (unit not given), replicate column 1 of 3): 15758
- Fluorescence competitive binding assay, OBP2 (raw fluorescence reading) (SfurOBP2; ligand concentration 4 (unit not given), replicate column 2 of 3): 17105
- Fluorescence competitive binding assay, OBP2 (raw fluorescence reading) (SfurOBP2; ligand concentration 4 (unit not given), replicate column 3 of 3): 16490
- Fluorescence competitive binding assay, OBP2 (raw fluorescence reading) (SfurOBP2; ligand concentration 6 (unit not given), replicate column 1 of 3): 15945
- Fluorescence competitive binding assay, OBP2 (raw fluorescence reading) (SfurOBP2; ligand concentration 6 (unit not given), replicate column 2 of 3): 16570
- Fluorescence competitive binding assay, OBP2 (raw fluorescence reading) (SfurOBP2; ligand concentration 6 (unit not given), replicate column 3 of 3): 19054
- Fluorescence competitive binding assay, OBP2 (raw fluorescence reading) (SfurOBP2; ligand concentration 8 (unit not given), replicate column 1 of 3): 15963
- Fluorescence competitive binding assay, OBP2 (raw fluorescence reading) (SfurOBP2; ligand concentration 8 (unit not given), replicate column 2 of 3): 18724
- Fluorescence competitive binding assay, OBP2 (raw fluorescence reading) (SfurOBP2; ligand concentration 8 (unit not given), replicate column 3 of 3): 18059
- Fluorescence competitive binding assay, OBP2 (raw fluorescence reading) (SfurOBP2; ligand concentration 10 (unit not given), replicate column 1 of 3): 16134
- Fluorescence competitive binding assay, OBP2 (raw fluorescence reading) (SfurOBP2; ligand concentration 10 (unit not given), replicate column 2 of 3): 18215
- Fluorescence competitive binding assay, OBP2 (raw fluorescence reading) (SfurOBP2; ligand concentration 10 (unit not given), replicate column 3 of 3): 19226
- Fluorescence competitive binding assay, OBP2 (raw fluorescence reading) (SfurOBP2; ligand concentration 12 (unit not given), replicate column 1 of 3): 15563
- Fluorescence competitive binding assay, OBP2 (raw fluorescence reading) (SfurOBP2; ligand concentration 12 (unit not given), replicate column 2 of 3): 19243
- Fluorescence competitive binding assay, OBP2 (raw fluorescence reading) (SfurOBP2; ligand concentration 12 (unit not given), replicate column 3 of 3): 19003
- Fluorescence competitive binding assay, OBP2 (raw fluorescence reading) (SfurOBP2; ligand concentration 14 (unit not given), replicate column 1 of 3): 19071
- Fluorescence competitive binding assay, OBP2 (raw fluorescence reading) (SfurOBP2; ligand concentration 14 (unit not given), replicate column 2 of 3): 18512
- Fluorescence competitive binding assay, OBP2 (raw fluorescence reading) (SfurOBP2; ligand concentration 14 (unit not given), replicate column 3 of 3): 18689
- Fluorescence competitive binding assay, OBP2 (raw fluorescence reading) (SfurOBP2; ligand concentration 16 (unit not given), replicate column 1 of 3): 17244
- Fluorescence competitive binding assay, OBP2 (raw fluorescence reading) (SfurOBP2; ligand concentration 16 (unit not given), replicate column 2 of 3): 19263
- Fluorescence competitive binding assay, OBP2 (raw fluorescence reading) (SfurOBP2; ligand concentration 16 (unit not given), replicate column 3 of 3): 18663
- Fluorescence competitive binding assay, OBP2 (raw fluorescence reading) (SfurOBP2; ligand concentration 18 (unit not given), replicate column 1 of 3): 23408
- Fluorescence competitive binding assay, OBP2 (raw fluorescence reading) (SfurOBP2; ligand concentration 18 (unit not given), replicate column 2 of 3): 23725
- Fluorescence competitive binding assay, OBP2 (raw fluorescence reading) (SfurOBP2; ligand concentration 18 (unit not given), replicate column 3 of 3): 20804
- Fluorescence competitive binding assay, OBP2 (raw fluorescence reading) (SfurOBP2; ligand concentration 20 (unit not given), replicate column 1 of 3): 16894
- Fluorescence competitive binding assay, OBP2 (raw fluorescence reading) (SfurOBP2; ligand concentration 20 (unit not given), replicate column 2 of 3): 20680
- Fluorescence competitive binding assay, OBP2 (raw fluorescence reading) (SfurOBP2; ligand concentration 20 (unit not given), replicate column 3 of 3): 19308
- Fluorescence competitive binding assay, fluorescence intensity (SfurOBP3; ligand concentration 2): 35042 and 35938 and 36236
- Fluorescence competitive binding assay, fluorescence intensity (SfurOBP3; ligand concentration 4): 33936 and 35041 and 36163
- Fluorescence competitive binding assay, fluorescence intensity (SfurOBP3; ligand concentration 6): 30371 and 31101 and 32222
- Fluorescence competitive binding assay, fluorescence intensity (SfurOBP3; ligand concentration 8): 32781 and 31040 and 32847
- Fluorescence competitive binding assay, fluorescence intensity (SfurOBP3; ligand concentration 10): 31032 and 32369 and 33307
- Fluorescence competitive binding assay, fluorescence intensity (SfurOBP3; ligand concentration 12): 29013 and 34433 and 32292
- Fluorescence competitive binding assay, fluorescence intensity (SfurOBP3; ligand concentration 14): 31092 and 30872 and 34922
- Fluorescence competitive binding assay, fluorescence intensity (SfurOBP3; ligand concentration 16): 33838 and 32037 and 30214
- Fluorescence competitive binding assay, fluorescence intensity (SfurOBP3; ligand concentration 18): 37931 and 38340 and 38776
- Fluorescence competitive binding assay, fluorescence intensity (SfurOBP3; ligand concentration 20): 37363 and 39141 and 38102
- binding affinity to SfurOBP3 (in words) (SfurOBP3; SfurOBP3): high binding affinities
- IC50 (SfurOBP3; SfurOBP3, protein and 1-NPN both 2.0 µM, competitor 2-20 µM, read-out: IC50): > 20 µM
- behavioral response of S. furcifera (in words) (S. furcifera adults): strongly attracted
- number of insects choosing hexane arm (S. furcifera adults; adults): 10
- number of insects choosing volatilies arm (S. furcifera adults; adults): 25
- number of insects failed (no choice) (S. furcifera adults; adults): 5

— paper PMC6409085, “Three odorant-binding proteins are involved in the behavioral response of Sogatella furcifera to rice plant volatiles” (PeerJ, 2019)
